Reference: the NIST ThermoML archive (doi:10.1021/je800348s)
± gives the expanded uncertainty stated by the source.

What was measured:
[1] = 101 kPa, Liquid; for mass density: Vibrating tube method
[2] = xn = mol fraction of the nth substance listed; conditions: 101 kPa, Liquid, x1 = 1; for mass density: Vibrating tube method

SMILES	viscosity ([1]; 293.15 K)	mass density ([1]; 293.15 K)	viscosity ([1]; 298.15 K)	mass density ([1]; 298.15 K)	viscosity ([1]; 303.15 K)	mass density ([1]; 303.15 K)	viscosity ([1]; 313.15 K)	mass density ([1]; 313.15 K)	mass density ([2]; 293.15 K)	viscosity ([2]; 293.15 K)	mass density ([2]; 298.15 K)	viscosity ([2]; 298.15 K)	mass density ([2]; 303.15 K)	viscosity ([2]; 303.15 K)	mass density ([2]; 313.15 K)	viscosity ([2]; 313.15 K)
CCCCCCCCCC [decane]	0.9491 ± 0.024 mPa·s	730 ± 8 kg/m3	0.8434 ± 0.022 mPa·s	726.4 ± 8 kg/m3	0.8172 ± 0.021 mPa·s	722.5 ± 8 kg/m3	0.7851 ± 0.02 mPa·s	715.4 ± 8 kg/m3	–	–	–	–	–	–	–	–
CCCCCCCCCC [decane] + C1C[C@@H]2[C@H]3CC[C@H](C3)[C@@H]2C1	–	–	–	–	–	–	–	–	730 ± 8 kg/m3	0.9491 ± 0.024 mPa·s	726.4 ± 8 kg/m3	0.8434 ± 0.022 mPa·s	722.5 ± 8 kg/m3	0.8172 ± 0.021 mPa·s	715.4 ± 8 kg/m3	0.7851 ± 0.02 mPa·s
C1C[C@@H]2[C@H]3CC[C@H](C3)[C@@H]2C1 [exo-tetrahydrodicyclopentadiene]	3.064 ± 0.077 mPa·s	935.2 ± 8 kg/m3	2.74 ± 0.069 mPa·s	931.4 ± 8 kg/m3	2.514 ± 0.063 mPa·s	927.7 ± 8 kg/m3	2.27 ± 0.057 mPa·s	922.2 ± 8 kg/m3	–	–	–	–	–	–	–	–
CCCCCCCC [octane]	0.5439 ± 0.015 mPa·s	702.5 ± 8 kg/m3	0.5177 ± 0.015 mPa·s	698.5 ± 8 kg/m3	0.4795 ± 0.014 mPa·s	694.5 ± 8 kg/m3	0.4358 ± 0.013 mPa·s	686.3 ± 8 kg/m3	–	–	–	–	–	–	–	–
CCCCCCCC [octane] + C1C[C@@H]2[C@H]3CC[C@H](C3)[C@@H]2C1	–	–	–	–	–	–	–	–	702.5 ± 8 kg/m3	0.5439 ± 0.015 mPa·s	698.5 ± 8 kg/m3	0.5177 ± 0.015 mPa·s	694.5 ± 8 kg/m3	0.4795 ± 0.014 mPa·s	686.3 ± 8 kg/m3	0.4358 ± 0.013 mPa·s
